Assay results as given in patent US8716309B2, “Pharmaceutical composition comprising pyridone derivatives” (priority 2011, dated 2014).

Assays:
[1] = system: Male ICR mice; assay: Novel Object Recognition Test (NORT), MK-801 induced amnesia; format: in vivo; settings: Mus musculus; po; dose at which the relative RI is given; doses 0.03˜3 mg/kg; read-out: NORT MED
From the text: A NORT, which was first introduced by Ennaceur and Delacour, is a cognitive memory test for measuring whether rats are able to remember objects with which they have had previous experience based on the nature of rats, i.e., preference to explore novel objects [Ennaceur A and Delacour J (1988) A new one-trial test for neurobiological studies of memory in rats. 1; Behavioral data. Behavioral Brain Res. 31; 47-59]. This NOR test is a popular experimental method for measuring changes in memory of objects in rodents administered with either an amnesia-inducing drug or other general drugs, by which memory recovery efficacy of a test drug in the rodents administered with the amnesia-inducing drug is explored. In the present example, the test was performed in accord with the description of Bevins and Besheer [Bevins, R. A. & Besheer, J. Object recognition in rats and mice; a one-trial non-matching-to-sample learning task to study ‘recognition memory’. Nat. Protoc. 2006; 1(3); 1306-11. (2006)]. Male ICR mice (available from Orient Bio Inc., Korea) weighing from about 20 g to about 32 g were orally administered a test compound dissolved in a 30% PEG at doses of 0.03˜3 mg/kg and 10 ml/kg body weight. 30 minutes after the administration, MK-801 (available from Sigma) dissolved in saline was subcutaneously administered at doses of 0.1 mg/kg and 10 ml/kg body weight to induce amnesia. About 30 minutes after the administration of MK-801, the mice were allowed to explore a rectangular stainless steel pillar or a circular plastic pillar which was previously placed in a box for about 5 minutes. About 24 hours after the exploration, one of the two objects previously presented was replaced with a new one (i.e., to include one rectangular stainless steel pillar and one circular plastic pillar), the times they took to explore were measured for about 5 minutes. A recognition index (RI) was defined as: [(Exploration time for novel object in test compound group/Exploration time for all objects in test compound group)/(Exploration time for novel object in MK801 group/Exploration time for all objects in MK801 group)×100].
Table 2 below presents relative RIs of the compounds at a minimal dose […].

[2] = biological target: human α7 nAChR (Homo sapiens, UniProt P36544); assay: cell-based; settings: EC50 of human α7nAChR(nM), HEK293T/17 cells transfected with human α7 nAChR; PNU-120596 added; relative to epibatidine 1 μM positive control
human α7 nAChR, sequence (P36544 23-502): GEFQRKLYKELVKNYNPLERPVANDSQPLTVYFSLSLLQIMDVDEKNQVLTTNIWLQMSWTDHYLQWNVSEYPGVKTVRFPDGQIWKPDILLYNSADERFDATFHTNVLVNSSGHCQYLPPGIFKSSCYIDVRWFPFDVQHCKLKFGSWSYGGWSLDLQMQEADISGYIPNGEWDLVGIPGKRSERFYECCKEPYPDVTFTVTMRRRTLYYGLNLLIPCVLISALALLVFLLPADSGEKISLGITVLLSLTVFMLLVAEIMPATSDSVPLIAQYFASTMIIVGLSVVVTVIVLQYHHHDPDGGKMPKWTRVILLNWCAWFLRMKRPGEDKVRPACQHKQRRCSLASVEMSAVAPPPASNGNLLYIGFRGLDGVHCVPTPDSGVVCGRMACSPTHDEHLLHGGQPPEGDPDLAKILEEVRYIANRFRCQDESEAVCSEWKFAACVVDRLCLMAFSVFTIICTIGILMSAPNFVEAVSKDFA

Row | Compound | minimal effective dose at 3 mg/kg [1] | EC50 [2] | minimal effective dose [1]
1 | O=C(NC1CN2CCC1CC2)c1ccc(=O)n(-c2ccc(Cl)cc2)c1 (stereo not shown) [Example 4, N-(1-azabicyclo[2.2.2]octan-3-yl)-1-(4-chlorophenyl)-6-oxo-3-pyridinecarboxamide] | 3 mg/kg | > 1000 nM | –
2 | O=C(NC1CN2CCC1CC2)c1ccc(=O)n(-c2ccc(Cl)cc2Cl)c1 (stereo not shown) [Example 25, N-(1-azabicyclo[2.2.2]octan-3-yl)-1-(2,4-dichlorophenyl)-6-oxo-3-pyridinecarboxamide] | – | 500 to 1000 nM | 3 mg/kg
3 | O=C(N[C@H]1CN2CCC1CC2)c1ccc(=O)n(-c2ccc(Cl)cc2Cl)c1 [Example 26, N-[(3R)-1-azabicyclo[2.2.2]octan-3-yl)-1-(2,4-dichlorophenyl)-6-oxo-3-pyridinecarboxamide] | – | 100 to 500 nM | 1 mg/kg
4 | O=C(N[C@@H]1CN2CCC1CC2)c1ccc(=O)n(-c2ccc(Cl)cc2Cl)c1 [Example 27, N-[(3S)-1-azabicyclo[2.2.2]octan-3-yl)-1-(2,4-dichlorophenyl)-6-oxo-3-pyridinecarboxamide] | – | > 1000 nM | 1 mg/kg
5 | Cc1ccc(-n2cc(C(=O)NC3CN4CCC3CC4)ccc2=O)c(Cl)c1 (stereo not shown) [Example 33, N-(1-azabicyclo[2.2.2]octan-3-yl)-1-(2-chloro-4-methylphenyl)-6-oxo-3-pyridinecarboxamide] | – | 100 to 500 nM | 1 mg/kg
6 | CSc1ccccc1-n1cc(C(=O)N[C@@H]2CN3CCC2CC3)ccc1=O [Example 79, N-[(3S)-1-azabicyclo[2.2.2]octan-3-yl]-1-[2-(methylthio)phenyl]-6-oxo-3-pyridinecarboxamide] | – | 100 to 500 nM | –
7 | CCSc1ccccc1-n1cc(C(=O)NC2CN3CCC2CC3)ccc1=O (stereo not shown) [Example 80, N-(1-azabicyclo[2.2.2]octan-3-yl)-1-[2-(ethylthio)phenyl]-6-oxo-3-pyridinecarboxamide] | – | < 100 nM | –
8 | CC(C)Sc1ccccc1-n1cc(C(=O)NC2CN3CCC2CC3)ccc1=O (stereo not shown) [Example 81, N-(1-azabicyclo[2.2.2]octan-3-yl)-6-oxo-1-[2-(propan-2-ylthio)phenyl]-3-pyridinecarboxamide] | – | 100 to 500 nM | –
9 | O=C(NC1CN2CCC1CC2)c1ccc(=O)n(-c2ccccc2SCc2ccccc2)c1 (stereo not shown) [Example 82, N-(1-azabicyclo[2.2.2]octan-3-yl)-6-oxo-1-[2-(phenylmethylthio)phenyl]-3-pyridinecarboxamide] | – | 100 to 500 nM | –
10 | CSc1ccc(C(F)(F)F)cc1-n1cc(C(=O)NC2CN3CCC2CC3)ccc1=O (stereo not shown) [Example 83, N-(1-azabicyclo[2.2.2]octan-3-yl)-1-[2-(methylthio)-5-(trifluoromethyl)phenyl]-6-oxo-3-pyridinecarboxamide] | – | 500 to 1000 nM | –
11 | COc1ccc(-n2cc(C(=O)NC3CN4CCC3CC4)ccc2=O)c(SC)c1 (stereo not shown) [Example 84, N-(1-azabicyclo[2.2.2]octan-3-yl)-1-[4-methoxy-2-(methylthio)phenyl]-6-oxo-3-pyridinecarboxamide] | – | < 100 nM | 0.3 mg/kg
12 | CCSc1cc(OC)ccc1-n1cc(C(=O)NC2CN3CCC2CC3)ccc1=O (stereo not shown) [Example 85, N-(1-azabicyclo[2.2.2]octan-3-yl)-1-[2-(ethylthio)-4-methoxyphenyl]-6-oxo-3-pyridinecarboxamide] | – | < 100 nM | –
13 | CSc1cc(Cl)ccc1-n1cc(C(=O)NC2CN3CCC2CC3)ccc1=O (stereo not shown) [Example 86, N-(1-azabicyclo[2.2.2]octan-3-yl)-1-[4-chloro-2-(methylthio)phenyl]-6-oxo-3-pyridinecarboxamide] | – | < 100 nM | 0.3 mg/kg
14 | CSc1cc(Cl)ccc1-n1cc(C(=O)N[C@H]2CN3CCC2CC3)ccc1=O [Example 87, N-[(3R)-1-azabicyclo[2.2.2]octan-3-yl]-1-[4-chloro-2-(methylthio)phenyl]-6-oxo-3-pyridinecarboxamide] | – | < 100 nM | –
15 | CSc1cc(Cl)ccc1-n1cc(C(=O)N[C@@H]2CN3CCC2CC3)ccc1=O [Example 88, N-[(3S)-1-azabicyclo[2.2.2]octan-3-yl]-1-[4-chloro-2-(methylthio)phenyl]-6-oxo-3-pyridinecarboxamide] | – | 100 to 500 nM | –
16 | CSc1cc(C)ccc1-n1cc(C(=O)NC2CN3CCC2CC3)ccc1=O (stereo not shown) [Example 89, N-(1-azabicyclo[2.2.2]octan-3-yl)-1-[4-methyl-2-(methylthio)phenyl]-6-oxo-3-pyridinecarboxamide] | – | < 100 nM | 0.03 mg/kg

Row | Compound | minimal effective dose at 3 mg/kg [1] | EC50 [2] | minimal effective dose [1]
17 | CSc1cc(C)ccc1-n1cc(C(=O)N[C@H]2CN3CCC2CC3)ccc1=O [Example 90, N-[(3R)-1-azabicyclo[2.2.2]octan-3-yl]-1-[4-methyl-2-(methylthio)phenyl]-6-oxo-3-pyridinecarboxamide] | – | < 100 nM | –
18 | CC(C)Sc1cc(Cl)ccc1-n1cc(C(=O)NC2CN3CCC2CC3)ccc1=O (stereo not shown) [Example 93, N-(1-azabicyclo[2.2.2]octan-3-yl)-1-[4-chloro-2-(propan-2-ylthio)phenyl]-6-oxo-3-pyridinecarboxamide] | – | 100 to 500 nM | –
19 | CCCc1ccc(-n2cc(C(=O)NC3CN4CCC3CC4)ccc2=O)c(SC)c1 (stereo not shown) [Example 94, N-(1-azabicyclo[2.2.2]octan-3-yl)-1-[2-(methylthio)-4-propylphenyl]-6-oxo-3-pyridinecarboxamide] | – | < 100 nM | –
20 | O=C(NC1CN2CCC1CC2)c1ccc(=O)n(-c2ccccc2Sc2ccccc2)c1 (stereo not shown) [Example 95, N-(1-azabicyclo[2.2.2]octan-3-yl)-6-oxo-1-[2-(phenylthio)phenyl]-3-pyridinecarboxamide] | – | < 100 nM | –
21 | CSc1cc(C(C)C)ccc1-n1cc(C(=O)NC2CN3CCC2CC3)ccc1=O (stereo not shown) [Example 96, N-(1-azabicyclo[2.2.2]octan-3-yl)-1-[2-(methylthio)-4-propan-2-ylphenyl]-6-oxo-3-pyridinecarboxamide] | – | < 100 nM | –
22 | CCSc1cc(Cl)ccc1-n1cc(C(=O)NC2CN3CCC2CC3)ccc1=O (stereo not shown) [Example 97, N-(1-azabicyclo[2.2.2]octan-3-yl)-1-[4-chloro-2-(ethylthio)phenyl]-6-oxo-3-pyridinecarboxamide] | – | < 100 nM | –
23 | CCc1ccc(-n2cc(C(=O)NC3CN4CCC3CC4)ccc2=O)c(SC)c1 (stereo not shown) [Example 98, N-(1-azabicyclo[2.2.2]octan-3-yl)-1-[4-ethyl-2-(methylthio)phenyl]-6-oxo-3-pyridinecarboxamide] | – | < 100 nM | –
24 | CSc1cc(C2CCCCC2)ccc1-n1cc(C(=O)NC2CN3CCC2CC3)ccc1=O (stereo not shown) [Example 99, N-(1-azabicyclo[2.2.2]octan-3-yl)-1-[4-cyclohexyl-2-(methylthio)phenyl]-6-oxo-3-pyridinecarboxamide] | – | 100 to 500 nM | –
25 | CS(=O)(=O)c1ccc(-n2cc(C(=O)NC3CN4CCC3CC4)ccc2=O)cc1 (stereo not shown) [Example 101, N-(1-azabicyclo[2.2.2]octan-3-yl)-1-(4-methylsulfonylphenyl)-6-oxo-3-pyridinecarboxamide] | – | 100 to 500 nM | –
26 | O=C(NC1CN2CCC1CC2)c1ccc(=O)n(-c2cccc3ccccc23)c1 (stereo not shown) [Example 102, N-(1-azabicyclo[2.2.2]octan-3-yl)-1-(1-naphthalenyl)-6-oxo-3-pyridinecarboxamide] | – | 100 to 500 nM | –
27 | Cc1cnc(-c2ccccc2-n2cc(C(=O)NC3CN4CCC3CC4)ccc2=O)s1 (stereo not shown) [Example 106, N-(1-azabicyclo[2.2.2]octan-3-yl)-1-[2-(5-methyl-2-thiazolyl)phenyl]-6-oxo-3-pyridinecarboxamide] | – | 500 to 1000 nM | –
28 | O=C(NC1CN2CCC1CC2)c1ccc(=O)n(-c2ccccc2-c2nc3ccccc3s2)c1 (stereo not shown) [Example 107, N-(1-azabicyclo[2.2.2]octan-3-yl)-1-[2-(1,3-benzothiazole-2-yl)phenyl]-6-oxo-3-pyridinecarboxamide] | – | < 100 nM | –
29 | Cc1ccc(-c2ccc(-n3cc(C(=O)NC4CN5CCC4CC5)ccc3=O)cc2)s1 (stereo not shown) [Example 108, N-(1-azabicyclo[2.2.2]octan-3-yl)-1-[4-(5-methyl-2-thiophenyl)phenyl]-6-oxo-3-pyridinecarboxamide] | – | 100 to 500 nM | –
30 | O=C(NC1CN2CCC1CC2)c1ccc(=O)n(-c2ccccc2-c2cccs2)c1 (stereo not shown) [Example 110, N-(1-azabicyclo[2.2.2]octan-3-yl)-6-oxo-1-(2-thiophene-2-ylphenyl)-3-pyridinecarboxamide] | – | 100 to 500 nM | –
31 | Cc1ccc(-c2ccccc2-n2cc(C(=O)NC3CN4CCC3CC4)ccc2=O)s1 (stereo not shown) [Example 111, N-(1-azabicyclo[2.2.2]octan-3-yl)-1-[2-(5-methyl-2-thiophenyl)phenyl]-6-oxo-3-pyridinecarboxamide] | – | 100 to 500 nM | –
32 | CN(C)c1ccc(-n2cc(C(=O)NC3CN4CCC3CC4)ccc2=O)cc1 (stereo not shown) [Example 113, N-(1-azabicyclo[2.2.2]octan-3-yl)-1-[4-dimethylaminophenyl]-6-oxo-3-pyridinecarboxamide] | – | 500 to 1000 nM | –
